Source: article doi:10.1101/2025.03.10.642353v1, “Deciphering the role of histo-blood group antigens in bovine rotavirus C infection” (biorxiv, 2025)

Molecular target: T1, bovine P[3] RVC VP8* (Bovine rotavirus C, UniProt L0N4C6)
T1 construct: gene VP4; VP8* galectin-like domain of polyprotein-like spike VP4 (trypsin-cleaved), residues 64-228 (E64-R228), synthetic codon-optimised gene, pGEX-2T N-terminal GST, E. coli BL21(DE3)
Assay: STD NMR (binding epitope mapping)
Conditions: PBS in D2O, pH 7.4, 278 K; 50 uM protein, 2 mM ligand; both anomers of reducing GlcNAc
Source text: STD NMR (binding epitope mapping) on bovine P[3]

## CC(=O)N[C@H]1C(O)O[C@H](CO)[C@@H](O[C@@H]2O[C@H](CO)[C@H](O)[C@H](O)[C@H]2O[C@@H]2O[C@@H](C)[C@@H](O)[C@@H](O)[C@@H]2O)[C@@H]1O (stereo partly drawn) [H2, Fuc-α1,2-Gal-β1,4-GlcNAc]
  STD NMR (binding epitope mapping): All performed STD NMR experiments showed clear signals confirming the binding of H2 antigen
